Experimental data: PubChem BioAssay AID1845196 (Molecular Pharmacology Branch, DTP, NCI, 2023)

Test system: 292921-168-R tumor spheroid viability
Experiment: Anticancer human tumor 292921-168-R patient-derived pancreatic carcinoma cell line growth inhibition
Details: spheroids with HUVEC and MSC; for IC50: curve of first compound; for viability, T/C: stronger effect = lower value
In short: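 Complex spheroids of malignant cells with endothelial cells and mesenchymal stem cells; agents alone or combined, from near clinical Cmax (or 10 microM if unknown) down in half-log steps, 0.25% DMSO final.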
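Note: spheroids exposed to compounds for 7 days.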

COc1cc(C)[nH]c(=O)c1CN1CCc2c(Cl)cc(C(OC)C3COC3)c(Cl)c2C1=O (stereo not given) + COc1cc2c(cc1O)CCNC21CSC2c3c(OC(C)=O)c(C)c4c(c3C(COC1=O)N1C(O)C3Cc5cc(C)c(OC)c(O)c5C(C21)N3C)OCO4
IC50 (second compound 30 pM): > 10 µM | IC50 (second compound 94.9 pM): > 10 µM | IC50 (second compound 0.0003 µM): 3.68 µM | IC50 (second compound 0.000949 µM): < 0.0316 µM | IC50 (second compound 0.003 µM): < 0.0316 µM | viability, T/C (second compound 30 pM, first compound 0.0316 µM): 117% | viability, T/C (second compound 30 pM, first compound 0.1 µM): 116% | viability, T/C (second compound 30 pM, first compound 0.316 µM): 110% | viability, T/C (second compound 30 pM, first compound 1 µM): 114% | viability, T/C (second compound 30 pM, first compound 3.16 µM): 110% | viability, T/C (second compound 30 pM, first compound 10 µM): 92.4% | viability, T/C (second compound 94.9 pM, first compound 0.0316 µM): 117% | viability, T/C (second compound 94.9 pM, first compound 0.1 µM): 101% | viability, T/C (second compound 94.9 pM, first compound 0.316 µM): 117% | viability, T/C (second compound 94.9 pM, first compound 1 µM): 112% | viability, T/C (second compound 94.9 pM, first compound 3.16 µM): 94.8% | viability, T/C (second compound 94.9 pM, first compound 10 µM): 97.3% | viability, T/C (second compound 0.0003 µM, first compound 0.0316 µM): 49.4% | viability, T/C (second compound 0.0003 µM, first compound 0.1 µM): 53.3% | viability, T/C (second compound 0.0003 µM, first compound 0.316 µM): 54.1% | viability, T/C (second compound 0.0003 µM, first compound 1 µM): 58.3% | viability, T/C (second compound 0.0003 µM, first compound 3.16 µM): 51.2% | viability, T/C (second compound 0.0003 µM, first compound 10 µM): 36.5% | viability, T/C (second compound 0.000949 µM, first compound 0.0316 µM): 6.67% | viability, T/C (second compound 0.000949 µM, first compound 0.1 µM): 3.7% | viability, T/C (second compound 0.000949 µM, first compound 0.316 µM): 4.01% | viability, T/C (second compound 0.000949 µM, first compound 1 µM): 3.27% | viability, T/C (second compound 0.000949 µM, first compound 3.16 µM): 2.1% | viability, T/C (second compound 0.000949 µM, first compound 10 µM): 1.64% | viability, T/C (second compound 0.003 µM, first compound 0.0316 µM): 0.15% | viability, T/C (second compound 0.003 µM, first compound 0.1 µM): 0.14% | viability, T/C (second compound 0.003 µM, first compound 0.316 µM): 0.13% | viability, T/C (second compound 0.003 µM, first compound 1 µM): 0.14% | viability, T/C (second compound 0.003 µM, first compound 3.16 µM): 0.2% | viability, T/C (second compound 0.003 µM, first compound 10 µM): 0.26%
